Data: BindingDB's records for doi:10.1016/s0960-894x(00)00026-3 (Universit&#224, 2000)

Assay: Inhibition of Clostridium histolyticum collagenase using a linear regression program

Point of comparison: `Cc1ccc(S(=O)(=O)NC(=O)N(Cc2ccc([N+](=O)[O-])cc2)C(C)C(=O)NO)cc1` (stereo not drawn) [N-hydroxy-2-[({[(4-methylphenyl)sulfonyl]amino}carbonyl)(4-nitrobenzyl)amino]propanamide], Ki 12 µM. Against it:
- CC(C(=O)NO)N(Cc1ccc([N+](=O)[O-])cc1)S(=O)(=O)c1ccc2ccccc2c1 (stereo not drawn) [N-Hydroxy-2-[(naphthalene-2-sulfonyl)-(4-nitro-benzyl)-amino]-propionamide] — 1.5-fold lower, 8 µM
- CC(C(=O)NO)N(Cc1ccc([N+](=O)[O-])cc1)S(C)(=O)=O (stereo not drawn) [N-Hydroxy-2-[methanesulfonyl-(4-nitro-benzyl)-amino]-propionamide] — 6.3-fold higher, 76 µM
- Cc1ccccc1S(=O)(=O)NC(=O)N(Cc1ccc([N+](=O)[O-])cc1)C(C)C(=O)NO (stereo not drawn) [N-hydroxy-2-[({[(2-methylphenyl)sulfonyl]amino}carbonyl)(4-nitrobenzyl)amino]propanamide] — 1.5-fold lower, 8 µM
- CC(C(=O)NO)N(Cc1ccc([N+](=O)[O-])cc1)S(=O)(=O)c1cccc(NC(=O)OC(C)(C)C)c1 (stereo not drawn) [{3-[(1-Hydroxycarbamoyl-ethyl)-(4-nitro-benzyl)-sulfamoyl]-phenyl}-carbamic acid tert-butyl ester] — 1.5-fold lower, 8 µM
- CC(C(=O)NO)N(Cc1ccc([N+](=O)[O-])cc1)S(=O)(=O)c1ccc(NC(=O)OC(C)(C)C)cc1 (stereo not drawn) [{4-[(1-Hydroxycarbamoyl-ethyl)-(4-nitro-benzyl)-sulfamoyl]-phenyl}-carbamic acid tert-butyl ester] — within 1.5-fold, 10 µM
- COc1ccc(S(=O)(=O)N(Cc2ccc([N+](=O)[O-])cc2)C(C)C(=O)NO)cc1NC(=O)OC(C)(C)C (stereo not drawn) [{5-[(1-Hydroxycarbamoyl-ethyl)-(4-nitro-benzyl)-sulfamoyl]-2-methoxy-phenyl}-carbamic acid tert-butyl ester] — 1.5-fold lower, 8 µM

Assay: Inhibition of Clostridium histolyticum collagenase (ChC) using a linear regression program

`CC(C(=O)NO)N(Cc1ccc([N+](=O)[O-])cc1)S(=O)(=O)c1ccc([N+](=O)[O-])c(Cl)c1` (stereo not drawn) [2-[(3-Chloro-4-nitro-benzenesulfonyl)-(4-nitro-benzyl)-amino]-N-hydroxy-propionamide] showed a Ki of 9 µM.
